Reference: BindingDB's records for doi:10.7270/Q21R6NZ6 (Emory University, 2008)

Molecular target: Mothers against decapentaplegic homolog 3 (Homo sapiens, UniProt P84022)
Assay: blockers of Smad3 complex formation in lysate – cell lysate, secondary confirmation, chemiluminescent ELISA, HEK293 lysate, dose response (AID 1058)

Mothers against decapentaplegic homolog 3, sequence (P84022 whole entry): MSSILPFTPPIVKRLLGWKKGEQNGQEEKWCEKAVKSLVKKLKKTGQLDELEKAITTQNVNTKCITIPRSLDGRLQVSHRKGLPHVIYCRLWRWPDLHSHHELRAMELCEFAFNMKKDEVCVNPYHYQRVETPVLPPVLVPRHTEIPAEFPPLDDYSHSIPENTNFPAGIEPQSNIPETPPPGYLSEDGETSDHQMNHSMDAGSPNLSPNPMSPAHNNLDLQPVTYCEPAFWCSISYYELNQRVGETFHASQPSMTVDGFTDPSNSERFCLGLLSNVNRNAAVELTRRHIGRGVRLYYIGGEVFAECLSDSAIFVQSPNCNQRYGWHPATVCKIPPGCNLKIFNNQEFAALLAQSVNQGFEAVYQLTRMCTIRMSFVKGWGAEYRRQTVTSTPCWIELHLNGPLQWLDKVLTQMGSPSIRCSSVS

IC50: > 50 µM
SMILES: COC(=O)c1ccccc1C1c2ccc(O)c(O)c2OC2C(=O)C(=O)C=CC21 (stereo unspecified) [2-(3,4,5-trihydroxy-6-keto-8a,9-dihydroxanthen-9-yl)benzoic acid methyl ester]
